From patent US20260293900A1 (priority 2023, published 2026)

Tests used:
[1] = test system: Phytophthora infestans; format: in vivo, Phytophthora infestans (on tomato leaf disks); conditions: 200 ppm; tomato leaf disks, preventative, inoculated 1 day after application; assessed 5-7 days after application
[2] = test system: Pythium ultimum; assay: Pythium ultimum/Liquid Culture (Seedling Damping Off); format: cell-based; conditions: Globisporangium ultimum, read-out: control of Pythium ultimum compared to untreated control (inhibition of growth)
[3] = test system: Plasmopara viticola; format: in vivo, Plasmopara viticola (on grape vine leaf disks); conditions: 200 ppm; grape vine leaf disks, preventative, inoculated 1 day after application; assessed 6-8 days after application

SMILES | control of Phytophthora infestans compared to untreated control (percent disease control) [1] | inhibition at 20 ppm [2] | control of Plasmopara viticola compared to untreated control (percent disease control) [3]
COCN(C(=O)c1ccn2ncc(-c3ccc(NC(=O)OC)nc3)c2c1)c1ccc(F)c(OC)c1 [Compound 1, methyl N-[5-[5-[(4-fluoro-3-methoxy-phenyl)-(methoxymethyl)carbamoyl]pyrazolo[1,5-a]pyridin-3-yl]-2-pyridyl]carbamate] | at least 80% | ≥ 80% | at least 80%
COC(=O)Nc1ccc(-c2cnn3ccc(C(=O)N(CC#N)c4ccc(Cl)c(OC)c4)cc23)cn1 [Compound 2, methyl N-[5-[5-[(4-chloro-3-methoxy-phenyl)-(cyanomethyl)carbamoyl]pyrazolo[1,5-a]pyridin-3-yl]-2-pyridyl]carbamate] | at least 80% | ≥ 80% | –
COC(=O)Nc1ccc(-c2cnn3ccc(C(=O)N(CC#N)c4ccc(F)c(OC)c4)cc23)cn1 [Compound 3, methyl N-[5-[5-[cyanomethyl-(4-fluoro-3-methoxy-phenyl)carbamoyl]pyrazolo[1,5-a]pyridin-3-yl]-2-pyridyl]carbamate] | at least 80% | – | at least 80%
COC(=O)Nc1ccc(-c2cnn3ccc(C(=O)N(C)c4ccc(F)c(OC)c4)cc23)cn1 [Compound 4, methyl N-[5-[5-[(4-fluoro-3-methoxy-phenyl)-methyl-carbamoyl]pyrazolo[1,5-a]pyridin-3-yl]-2-pyridyl]carbamate] | at least 80% | ≥ 80% | at least 80%
COC(=O)Nc1ccc(-c2cnn3ccc(C(=O)N(C)c4ccc(Cl)cc4)cc23)cc1 [Compound 5, methyl N-[4-[5-[(4-chlorophenyl)-methyl-carbamoyl]pyrazolo[1,5-a]pyridin-3-yl]phenyl]carbamate] | – | ≥ 80% | –
CC(=O)Nc1ccc(-c2cnn3ccc(C(=O)N(C)c4ccc(Cl)cc4)cc23)cc1 [Compound 6, 3-(4-acetamidophenyl)-N-(4-chlorophenyl)-N-methyl-pyrazolo[1,5-a]pyridine-5-carboxamide] | – | ≥ 80% | –
